The test system of this assay is L1210 leukemia ip in BDF1 mice, survival T/C. Kind of assay: NCI In Vivo Anticancer Drug Screen. Data for tumor model L1210 Leukemia (intraperitoneal) in B6D2F1 (BDF1) mice. Conditions: endpoint: mean survival time, higher = longer survival. The method, boiled down: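 Transplantable tumor model; survival measured in treated vs vehicle control mice. Value = treated/control.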

[1] abbreviates: dose: 100.0 mg/kg/injection, schedule: Q04DX003 (ip), vehicle: saline.
Setting [2] is: dose: 100.0 mg/kg/injection, schedule: Q01DX001 (ip), vehicle: saline.

Values joined by “and” are separate entries in the source; they are usually repeats but may differ in a detail not shown here. Identical values can stand only once. Toxic doses and inconclusive results are not listed.

For `CN1c2ccc(Br)c[c]2[Sn]2([c]3cc(Br)ccc31)[c]1cc(Br)ccc1N(C)c1ccc(Br)c[c]12`, the T/C runs as follows: (dose: 100.0 mg/kg/injection, schedule: Q01DX001 (ip), vehicle: steriod suspending solution) 104 % of control; (dose: 200.0 mg/kg/injection, schedule: Q01DX001 (ip), vehicle: steriod suspending solution) 107 % of control; (dose: 400.0 mg/kg/injection, schedule: Q01DX001 (ip), vehicle: steriod suspending solution) 109 % of control.

Regarding `CCCCCCCC(=O)Nc1c(C)cc(C)cc1C`, the T/C reads like this: (dose: 100.0 mg/kg/injection, schedule: Q04DX003 (ip), vehicle: saline with Tween-80) 95 % of control; (dose: 200.0 mg/kg/injection, schedule: Q04DX003 (ip), vehicle: saline with Tween-80) 92 % of control; (dose: 400.0 mg/kg/injection, schedule: Q04DX003 (ip), vehicle: saline with Tween-80) 93 % of control.

For the compound `CSc1nn(C)c2cc(C)c3ccccc3[n+]12`, the T/C was 108 % of control (dose: 5.0 mg/kg/injection, schedule: Q01DX001 (ip), vehicle: saline); 106 % of control (dose: 10.0 mg/kg/injection, schedule: Q01DX001 (ip), vehicle: saline); 103 % of control (dose: 20.0 mg/kg/injection, schedule: Q01DX001 (ip), vehicle: saline); 100 % of control (dose: 40.0 mg/kg/injection, schedule: Q01DX001 (ip), vehicle: saline).

As to `O=C(Nc1ccc(C2=NCCN2)cc1)c1ccc(C(=O)Nc2ccc(C3=NCCN3)cc2)c([N+](=O)[O-])c1`, the T/C (dose: 1.0 mg/kg/injection, schedule: Q#A X Z (ip), vehicle: saline) was 103 % of control; the T/C (dose: 2.0 mg/kg/injection, schedule: Q01DX Z (ip), vehicle: saline) was 112 % of control; the T/C (dose: 2.5 mg/kg/injection, schedule: Q## X000 (iv), vehicle: other) is 97 % of control; the T/C (dose: 3.6 mg/kg/injection, schedule: Q01DX Z (ip), vehicle: methylcellulose (MC)) was 163 % of control; the T/C (dose: 4.0 mg/kg/injection, schedule: Q01DX Z (ip), vehicle: saline) was 116 % of control; the T/C (dose: 4.0 mg/kg/injection, schedule: Q#A X Z (ip), vehicle: saline) is 184 % of control. Moreover, the T/C was 96 % of control (dose: 5.0 mg/kg/injection, schedule: Q## X000 (iv), vehicle: other); 195 % of control (dose: 5.4 mg/kg/injection, schedule: Q01DX Z (ip), vehicle: methylcellulose (MC)); 97 % of control (dose: 6.0 mg/kg/injection, schedule: Q01DX004 (im), vehicle: olive oil, sesame oil, peanut oil); 115 % of control (dose: 6.0 mg/kg/injection, schedule: Q03DX Z (ip), vehicle: saline); 98 % of control (dose: 8.0 mg/kg/injection, schedule: Q01DX004 (im), vehicle: olive oil, sesame oil, peanut oil); 246 % of control (dose: 8.0 mg/kg/injection, schedule: Q01DX Z (ip), vehicle: methylcellulose (MC)). Also, the T/C was 204 % of control (dose: 8.0 mg/kg/injection, schedule: Q01DX Z (ip), vehicle: saline); 120 % of control (dose: 10.0 mg/kg/injection, schedule: Q## X000 (iv), vehicle: other); 101 % of control (dose: 12.0 mg/kg/injection, schedule: Q01DX004 (im), vehicle: olive oil, sesame oil, peanut oil); 204 % of control (dose: 12.0 mg/kg/injection, schedule: Q01DX Z (ip), vehicle: methylcellulose (MC)); 123 % of control (dose: 12.0 mg/kg/injection, schedule: Q03DX Z (ip), vehicle: saline); 188 % of control and 198 % of control (dose: 16.0 mg/kg/injection, schedule: Q01DX009 (ip), vehicle: saline). The T/C is, setting by setting: (dose: 18.0 mg/kg/injection, schedule: Q01DX004 (im), vehicle: olive oil, sesame oil, peanut oil) 104 % of control; (dose: 24.0 mg/kg/injection, schedule: Q03DX Z (ip), vehicle: saline) 188 % of control; (dose: 28.0 mg/kg/injection, schedule: Q07DX Z (ip), vehicle: saline) 113 % of control; (dose: 32.0 mg/kg/injection, schedule: Q01DX009 (ip), vehicle: saline) 100 % of control and 103 % of control; (dose: 32.0 mg/kg/injection, schedule: Q01DX Z (ip), vehicle: saline) 86 % of control; (dose: 48.0 mg/kg/injection, schedule: Q03DX Z (ip), vehicle: saline) 172 % of control. The T/C (dose: 64.0 mg/kg/injection, schedule: Q01DX Z (sc), vehicle: steriod suspending solution) was 159 % of control; the T/C (dose: 96.0 mg/kg/injection, schedule: Q03DX Z (ip), vehicle: saline) was 100 % of control; the T/C (dose: 125.0 mg/kg/injection, schedule: Q01DX Z (sc), vehicle: steriod suspending solution) was 122 % of control; the T/C (dose: 240.0 mg/kg/injection, schedule: Q01DX Z (oral), vehicle: saline) is 101 % of control.

For `CCOC(=O)c1ccc(N=Nc2ccc([N+](=O)[O-])cc2)cc1`, the T/C is, setting by setting: (dose: 100.0 mg/kg/injection, schedule: Q04DX002 (ip), vehicle: saline with Tween-80) 105 % of control; (dose: 200.0 mg/kg/injection, schedule: Q04DX002 (ip), vehicle: saline with Tween-80) 105 % of control; (dose: 400.0 mg/kg/injection, schedule: Q04DX002 (ip), vehicle: saline with Tween-80) 112 % of control.

`O=C([O-])C1CCCCC1[I+]c1ccccc1` (stereo not given): the T/C runs as follows: under setting [1], 100 % of control; (dose: 200.0 mg/kg/injection, schedule: Q04DX003 (ip), vehicle: saline) 98 % of control.

Consider `Oc1ccc(O)c2c1C1c3ccccc3C2c2ccccc21`, for which the T/C under setting [2] was 86 % of control and the T/C (dose: 200.0 mg/kg/injection, schedule: Q01DX001 (ip), vehicle: saline) was 108 % of control.

Turning to `Cc1nnc2ncnc(SCc3ccccc3)c2n1`, the T/C by setting is: (dose: 12.5 mg/kg/injection, schedule: Q01DX001 (ip), vehicle: Klucel (hydroxypropylcellulose) (HPC)) 100 % of control; (dose: 25.0 mg/kg/injection, schedule: Q01DX001 (ip), vehicle: Klucel (hydroxypropylcellulose) (HPC)) 95 % of control and 91 % of control; (dose: 50.0 mg/kg/injection, schedule: Q01DX001 (ip), vehicle: Klucel (hydroxypropylcellulose) (HPC)) 93 % of control; (dose: 100.0 mg/kg/injection, schedule: Q01DX001 (ip), vehicle: Klucel (hydroxypropylcellulose) (HPC)) 90 % of control.

Take `Cc1cc(C#N)cc(C)c1N`: the T/C (dose: 75.0 mg/kg/injection, schedule: Q01DX001 (ip), vehicle: other) is 100 % of control; the T/C (dose: 150.0 mg/kg/injection, schedule: Q01DX001 (ip), vehicle: other) is 95 % of control; the T/C (dose: 300.0 mg/kg/injection, schedule: Q01DX001 (ip), vehicle: other) was 105 % of control.

With `CC1(C)N=C(N)N=C(N)N1c1cccc([N+](=O)[O-])c1`, the T/C by setting is: (dose: 25.0 mg/kg/injection, schedule: Q04DX002 (ip), vehicle: saline) 93 % of control; (dose: 25.0 mg/kg/injection, schedule: Q04DX003 (ip), vehicle: saline) 106 % of control; (dose: 50.0 mg/kg/injection, schedule: Q04DX002 (ip), vehicle: saline) 96 % of control; (dose: 50.0 mg/kg/injection, schedule: Q04DX003 (ip), vehicle: saline) 105 % of control; (dose: 100.0 mg/kg/injection, schedule: Q04DX002 (ip), vehicle: saline) 91 % of control; under setting [1], 98 % of control and 111 % of control.

`CCCCCCCCCCCCNC(=O)CCl`: the T/C reads like this: (dose: 100.0 mg/kg/injection, schedule: Q01DX009 (ip), vehicle: Klucel (hydroxypropylcellulose) (HPC)) 87 % of control; (dose: 100.0 mg/kg/injection, schedule: Q04DX003 (ip), vehicle: Klucel (hydroxypropylcellulose) (HPC)) 91 % of control; (dose: 200.0 mg/kg/injection, schedule: Q01DX009 (ip), vehicle: Klucel (hydroxypropylcellulose) (HPC)) 90 % of control; (dose: 200.0 mg/kg/injection, schedule: Q04DX003 (ip), vehicle: Klucel (hydroxypropylcellulose) (HPC)) 89 % of control; (dose: 400.0 mg/kg/injection, schedule: Q01DX009 (ip), vehicle: Klucel (hydroxypropylcellulose) (HPC)) 91 % of control.

On to `COC(=O)C(O)(C#CC(C)(C)C)c1ccccc1` (stereo not given), for which the T/C (dose: 100.0 mg/kg/injection, schedule: Q01DX001 (ip), vehicle: other) is 86 % of control; the T/C (dose: 200.0 mg/kg/injection, schedule: Q01DX001 (ip), vehicle: other) was 91 % of control; the T/C (dose: 400.0 mg/kg/injection, schedule: Q01DX001 (ip), vehicle: other) is 96 % of control.

For the compound `NCCCN=C=NCc1ccccc1`, the T/C under setting [2] is 100 % of control.

Take `CCCC(NC(=O)C(C)Br)C(=O)O` (stereo not given): the T/C is 88 % of control (dose: 100.0 mg/kg/injection, schedule: Q01DX009 (ip), vehicle: saline with Tween-80); 98 % of control (dose: 200.0 mg/kg/injection, schedule: Q01DX009 (ip), vehicle: saline with Tween-80); 95 % of control (dose: 400.0 mg/kg/injection, schedule: Q01DX009 (ip), vehicle: saline with Tween-80).
